Laboratory results taken from patent US12503426B2, “Synthetic derivatives of oleoyl-lysophosphatidylinositol (oleoyl-LPI) and uses thereof” (LIPOVEXA SRL, priority 2017, dated 2025).

Columns and labels:
Glutag cells = assay: GLP-1 secretion by Glutag cells; assay type: cell-based, murine; conditions: Glutag cells
Protocol: Glutag cells were maintained in low glucose DMEM (Sigma) (1 g/L) containing 2.0 mM L-glutamine, 1.0 mM sodium pyruvate and supplemented with 10% FBS, 100 IU/ml penicillin, 100 μg/ml streptomycin at a 37° C. and 5% CO2.
Approximately 80,000 Glutag cells were plated in poly-L-lysine-coated 24-well culture plates and grown to about 80% confluence. NCI-H716 cells were seeded on growth factor reduced Matrigel™ (Becton Dickinson, Bedford, MA) in DMEM medium, supplemented with 10% FBS the day before the experiment. For NCI-H716 cells, approximately 25,000 cells were needed for this secretion experiment in order to have good stimulation with lower basal GLP-1 secretion. In brief, Glutag and NCI-H716 cells were washed twice and then incubated for 2 h with FBS-free DMEM containing 1% (M:C) alone (negative control), 10 μM forskolin as positive control (Sigma-Aldrich), or with different concentrations of Oleoyl-LPI. M:C was used as a solvent to prepare stock solutions of fatty acid derivatives and inhibitors. For secretion experiments, medium and cells were collected separately.
In separate studies, GLUTag or NCI-H716 cells were pre-treated for 1 hour with medium alone (1% DMSO, negative control), PD98059 (50 μM; Sigma Chemical Co.), H89 (10 μM; Santa Cruz) followed by treatment with oleoyl-LPI (20 μM), OEA (10 μM), AR231453(1 μM), PMA (10 μM) or forskolin (10 μM, positive control) in the presence of inhibitors, as appropriate, for about 2 h. Medium GLP-1 secretion was calculated as total GLP-1 content of medium normalised for the basal secretion of the control.
In order to investigate the role of different LPI species in enteroendocrine cells, murine (Glutag) and human (NCI-H716) L-cells were stimulated with the following different species of LPI: Arachidonyl-LPI, Stearoyl-LPI, Heptadecenoyl-LPI and oleoyl-LPI, as well as with OEA and LPC. Experiments were performed in duplicate, n=4 and the level of total GLP-1 was measured by ELISA.

NCI-H716 cells = assay: GLP-1 secretion in NCI-H716 cells, in vitro human L cells model (Examples 30-33); assay type: cell-based; conditions: for Emax: Homo sapiens, NCI-H716, 2 h; for activity in inducing and/or increasing secretion of GLP-1 from cells of the GI tract: summary statement, compared with oleoyl-LPI; for GLP-1 biosynthesis and secretion from NCI-H716 L cells / level of GLP-1 biosynthesis and secretion compared with oleoyl-LPI: 20 μM, 2 hours; for GLP-1 biosynthesis and secretion from NCI-H716 L cells: normalized against DMSO vehicle control
Protocol: (§1) To evaluate the GLP-1 biosynthesis and secreting capabilities of the compounds of formula I in vitro using the human-derived cell line NCI-H716, 50,000 such cells were seeded per well of a 24-well plate pre-coated with a thin layer of Matrigel (0.15 mg/ml) in RPMI complete (RPMI additioned with FBS 10%, Glucose 2 g/L, Glutamine 4 mM, Sodium Bicarbonate 2 g/L, Pen/Strep 1× pH 7.4 at 37° C.) and incubated at 37° C. in humidified 5% CO2 atmosphere to induce endocrine differentiation.
After 48 hours, media was withdrawn and cells washed once with warm HBSS (Hank's balanced salt solution) and then incubated in duplicate for 2 hours with the different dilutions of the oleoyl-LPI, OEA, DMSO (as negative control), a test compound of formula I, and KR-62436 10 μg/ml, all dissolved in RPMI serum free (RPMI complete without FBS) at 37° C. in humidified 5% CO2 incubator. Supernatant were quickly collected on ice and stored at −80° C. before quantification of GLP-1 with a commercial ELISA (EMD Millipore) specific for active-GLP-1 species.
as §1, with “1×pH” for “1× pH”
After 48 hours, media was withdrawn and cells washed twice with pre-warm HBSS (Hank's balanced salt solution) and then incubated in duplicate for 2 hours with 250 μl of 20 μM of either oleoyl-LPI, DMSO (as negative control) or a test compound of formula I, and […], all dissolved in RPMI serum free (RPMI complete without FBS) at 37° C. in humidified 5% CO2 incubator. Compounds of formula I tested were ps297b, ps316a, ps318a, ps319a, ps321a and ps323.
Supernatant were quickly collected on ice and stored at −80° C. before quantification of GLP-1 with a commercial ELISA (EMD Millipore) specific for active-GLP-1 species (e.g., GLP-1 (7-36) amide) and […]).
Compounds of formula I were tested for GLP-1 secretion in NCI-H716 cells essentially as describe in examples 30 and 31 above. EC50 GLP-1 secretion readout results were standardized relative to maximum GLP-1 secretion obtained with oleoyl-LPI. EC50 readout results were rated as low GLP-1 secretion activity (0-20% of maximum GLP-1 secretion achieved with oleoyl-LPI), moderate (21-79% of maximum GLP-1 secretion achieved with oleoyl-LPI), and high GLP-1 activity (80% and more of maximum GLP-1 secretion achieved with oleoyl-LPI). Table 3 also outlines the R1, R2 and R3 substituents of the compounds of formula I.

[1] = tested on: colonic cells of the GI tract obtained from guinea pig; assay: Ex vivo GLP-1 biosynthesis and secretion, guinea pig GI tract cells; assay type: cell-based
Protocol: To test for this, a pregnant guinea pig was anesthetized with isoflurane and sacrificed via intra-cardial injection of pentobarbital. Colon and rectum were quickly collected and intraluminal content washed out with ice-cold HBSS. After a thorough cleansing from the faecal material, and gentle scraping of the internal mucosa, the tissue was minced into 3 to 5-millimetre pieces and resuspended into 50 ml of ice cold HBSS. Pellet was spun down and washed again in 50 ml of ice-cold HBSS. Supernatant was carefully removed, and the epithelial fragments were then resuspended for 30 minutes at 37° C. into a 5 ml solution of HEPES 25 mM, collagenase-P 1 mg/ml in HBSS, pH 7.4 at 37° C.
The tissue was then pelleted and resuspended further for about 30 to 40 additional minutes at 37° C. within a 10 ml solution of 1 mg/ml collagenase-P as above.
After the digestion, about 40 ml of pre-warmed DMEM complete media was added (FBS 10%, glucose 4.5 g/L, glutamine 4 mM, sodium pyruvate 1 mM, HEPES 25 mM, sodium bicarbonate 3.7 g/L, Pen/Strep 1× and Ciprofloxacin 10 μg/ml pH 7.4 at 37° C.). Crypts and individual cells were isolated with a […] nylon strainer, spun down at 200 g for 5 minutes, resuspended into 10 ml of DMEM complete media and plated into 20 wells of a 24-well plate coated with a 3D gel of 3 mg/ml Matrigel (BD, Biosciences, Oxford, UK). After one day of incubation at 37° C. 5% CO2 in a humidified incubator, cells were washed with 500 μl of warm HBSS, and treated with 250 μl DMEM serum free (Complete medium without FBS) additioned with KR-62436 10 μg/ml and individually the following drugs or compounds: Forskolin and IBMX (20 μM each), oleoyl-LPI, and the two oleoyl-LPI analogs and/or derivatives ps297b (prepared as described in example 13) and ps316a (prepared as described in example 22) were all tested in quadruplicate at 20 μM.
After a 2-hour long incubation at 37 C 5% CO2, the supernatants were collected on ice, and quickly stored at […]. Active GLP-1 levels (7-37 amide and 7-36) were quantified on 50 μl of supernatant with an ELISA commercial kit (EMD Millipore). DMSO was used as a negative control, the combination of Forskolin and IBMX was included as positive control activators GLP-1. GLP-1 levels measured were standardized against the DMSO control.
The EC50 levels each one of oleoyl-LPI, compound ps297b and compound ps316a were also measured in quadruplicates at the conclusion of the 2 hour incubation. Guinea pig cells obtained as described above were also incubated with […] in quadruplicates and subjected to 2-hour long incubation at 37 C 5% CO2 as described above and EC50 levels measured.

[2] = NCI-H716 cells, standardized relative to maximum GLP-1 secretion obtained with oleoyl-LPI

CC(C)c1noc(C2CCN(c3ncnc(Nc4ccc(S(C)(=O)=O)cc4F)c3[N+](=O)[O-])CC2)n1 [AR-231,453]
GLP-1 secretion (Glutag cells; two hours treatment, compound alone): significantly increases GLP-1 secretion

CCCCC/C=C\C/C=C\C/C=C\C/C=C\CCCC(=O)NCc1ccc(O)c(OC)c1 [Arvanil, N-arachidonoyl-vanillyl-amide]
antagonist activity for GPR119 (inventors' conclusion) (Glutag cells): weak antagonist for GPR119
GLP-1 secretion, combination treatment (Glutag cells; Arvanil together with AR-231,453): significantly reduced GLP-1 secretion
GLP-1 secretion, combination treatment (Glutag cells; Arvanil with either OEA or LPI): significantly enhanced GLP-1 secretion

CCCCCCCC/C=C\CCCCCCCC(=O)Nc1ccc(C#N)cc1 [ps292a]
Emax (NCI-H716 cells; [2]): 0 to 20%

CCCCCCCC/C=C\CCCCCCCC(=O)Nc1ccc(C(=O)OC)cc1 [ps293a]
Emax (NCI-H716 cells; [2]): 0 to 20%

CCCCCCCC/C=C\CCCCCCCC(=O)Nc1ccc(C(=O)O)cc1 [ps294a]
Emax (NCI-H716 cells; [2]): 0 to 20%

CCCCCCCC/C=C\CCCCCCCC(=O)Nc1ccc(-c2nnn(C)n2)cc1 [ps298a]
Emax (NCI-H716 cells; [2]): 0 to 20%

CCCCCCCC/C=C\CCCCCCCC(=O)Nc1ccc(-c2nnnn2C)cc1 [ps298b]
Emax (NCI-H716 cells; [2]): 0 to 20%

CCCCCCCC/C=C\CCCCCCCC(=O)Nc1ccc(O)cc1 [ps300b]
Emax (NCI-H716 cells; [2]): 0 to 20%

CCCCCCCC/C=C\CCCCCCCC(=O)Nc1ccc(OC)cc1 [ps301a]
Emax (NCI-H716 cells; [2]): 0 to 20%

CCCCCCCC/C=C\CCCCCCCC(=O)Nc1ccc(C#N)cc1F [ps306a]
Emax (NCI-H716 cells; [2]): 0 to 20%

CCCCCCCC/C=C\CCCCCCCC(=O)Nc1ccc(C#N)c(F)c1 [ps308c]
Emax (NCI-H716 cells; [2]): 0 to 20%

CCCCCCCC/C=C\CCCCCCCC(=O)Nc1ccc(-c2nnn[nH]2)cc1F [ps309a]
Emax (NCI-H716 cells; [2]): > 80%
activity in inducing and/or increasing secretion of GLP-1 from cells of the GI tract (NCI-H716 cells): equal to or higher than oleoyl-LPI

CCCCCCCC/C=C\CCCCCCCC(=O)Nc1ccc(-c2nnn[nH]2)c(F)c1 [ps312a]
Emax (NCI-H716 cells; [2]): 21 to 79%

CCCCC/C=C\C/C=C\CCCCCCCC(=O)Nc1ccc(C#N)cc1 [ps314b]
Emax (NCI-H716 cells; [2]): 0 to 20%

CCCCCCCC/C=C\CCCCCCCC(=O)Nc1cccc(C#N)c1 [ps315a]
Emax (NCI-H716 cells; [2]): 0 to 20%

CCCCC/C=C\C/C=C\CCCCCCCC(=O)Nc1ccc(-c2nnn[nH]2)cc1 [ps316a]
GLP-1 levels compared with oleoyl-LPI ([1]; 20 μM, 2 hours): above those observed for the endogenous GRP119 ligand, oleoyl-LPI
GLP-1 biosynthesis and secretion ex vivo ([1]; 20 μM, 2 hours, standardized against DMSO control): stimulated biosynthesis and secretion
stability after incubation ex vivo ([1]; 2 hours incubation ex vivo): remained stable after 2 hours incubation ex vivo
EC50 ([1]; Cavia porcellus, ex vivo incubation 2 hours, quadruplicates): 22.4 µM
GLP-1 biosynthesis and secretion from NCI-H716 L cells (NCI-H716 cells): able to mediate GLP-1 biosynthesis and secretion
Emax (NCI-H716 cells; [2]): > 80%
level of GLP-1 biosynthesis and secretion compared with oleoyl-LPI (NCI-H716 cells; NCI-H716 cells): higher than those achieved from oleoyl-LPI
activity in inducing and/or increasing secretion of GLP-1 from cells of the GI tract (NCI-H716 cells): equal to or higher than oleoyl-LPI

CCCCCCCCCCCCCCCC(=O)Nc1ccc(C#N)cc1 [ps317b]
Emax (NCI-H716 cells; [2]): 0 to 20%

CCCCCCCC/C=C\CCCCCCCC(=O)Nc1cccc(-c2nnn[nH]2)c1 [ps318a]
GLP-1 biosynthesis and secretion from NCI-H716 L cells (NCI-H716 cells): able to mediate GLP-1 biosynthesis and secretion
Emax (NCI-H716 cells; [2]): > 80%
level of GLP-1 biosynthesis and secretion compared with oleoyl-LPI (NCI-H716 cells; NCI-H716 cells): higher than those achieved from oleoyl-LPI
activity in inducing and/or increasing secretion of GLP-1 from cells of the GI tract (NCI-H716 cells): equal to or higher than oleoyl-LPI

CCCCC/C=C\C/C=C\CCCCCCCC(=O)Nc1ccc(C#N)cc1F [ps319]
GLP-1 biosynthesis and secretion from NCI-H716 L cells (NCI-H716 cells): able to mediate GLP-1 biosynthesis and secretion
Emax (NCI-H716 cells; [2]): 0 to 20%

CCCCCCCCCCCCCCCC(=O)Nc1ccc(-c2nnn[nH]2)cc1 [ps320c]
Emax (NCI-H716 cells; [2]): 0 to 20%

CCCCCCCC/C=C\CCCCCCCC(=O)Nc1ccc(-c2nnn[nH]2)cc1.[Na+] [ps321a]
GLP-1 biosynthesis and secretion from NCI-H716 L cells (NCI-H716 cells): able to mediate GLP-1 biosynthesis and secretion
GLP-1 secretion Activity relative to oleoyl-LPI (NCI-H716 cells; [2]): Low (low GLP-1 secretion activity (0-20% of maximum GLP-1 secretion achieved with oleoyl-LPI))

CCCCC/C=C\C/C=C\CCCCCCCC(=O)Nc1ccc(-c2nnn[nH]2)cc1F [ps323b]
GLP-1 biosynthesis and secretion from NCI-H716 L cells (NCI-H716 cells): able to mediate GLP-1 biosynthesis and secretion
Emax (NCI-H716 cells; [2]): 0 to 20%
